Laboratory results published in the kinase profiling compilation of Christmann-Franck et al. (2016).

Experiments:
Assay in all cases: radiometric filter-binding kinase assay, Kinase HotSpot
Settings in all cases: compound 0.5 µM; ATP 10 µM
[1] = biological target: CAMK4 (human) (UniProt Q16566)
[2] = biological target: DYRK3 (human) (UniProt O43781)
[3] = biological target: IRAK1 (human) (UniProt P51617)
[4] = biological target: RPS6KA2 KD1 KD2 (human) (UniProt Q15349)
[5] = biological target: ULK1 (human) (UniProt O75385)
[6] = biological target: TYRO3 (human) (UniProt Q06418)
[7] = biological target: CDK3 CCNE1 (human) (UniProt Q00526+P24864)
[8] = biological target: SRMS (human) (UniProt Q9H3Y6)
[9] = biological target: EPHA7 (human) (UniProt Q15375)
[10] = biological target: CHEK2 (human) (UniProt O96017)
[11] = biological target: EPHA8 (human) (UniProt P29322)
[12] = biological target: LYN (human) (UniProt P07948)
[13] = biological target: STK3 (human) (UniProt Q13188)
[14] = biological target: PBK (human) (UniProt Q96KB5)
[15] = biological target: CSF1R (human) (UniProt P07333)
[16] = biological target: TAOK1 (human) (UniProt Q7L7X3)
[17] = tested on: MAP2K6 (human), P52564 [S207E/T211E]
[18] = biological target: TEK (human) (UniProt Q02763)
[19] = biological target: CSNK1G2 (human) (UniProt P78368)
[20] = biological target: PLK2 (human) (UniProt Q9NYY3)
[21] = biological target: CLK4 (human) (UniProt Q9HAZ1)
[22] = biological target: TGFBR1 (human) (UniProt P36897)
[23] = biological target: ROS1 (human) (UniProt P08922)
[24] = biological target: FER (human) (UniProt P16591)
[25] = biological target: ACVRL1 (human) (UniProt P37023)
[26] = biological target: MAP3K5 (human) (UniProt Q99683)
[27] = biological target: NUAK1 (human) (UniProt O60285)
[28] = biological target: STK39 (human) (UniProt Q9UEW8)
[29] = biological target: CDK4 CCND1 (human) (UniProt P24385+P11802)
[30] = biological target: MAPK1 (human) (UniProt P28482)
[31] = biological target: PRKX (human) (UniProt P51817)
[32] = biological target: CDK2 CCNA2 (human) (UniProt P24941+P20248)
[33] = biological target: PAK3 (human) (UniProt O75914)
[34] = biological target: CSNK2A2 (human) (UniProt P19784)
[35] = biological target: PRKG2 (human) (UniProt Q13237)
[36] = biological target: MARK2 (human) (UniProt Q7KZI7)
[37] = biological target: PAK7 (human) (UniProt Q9P286)
[38] = biological target: AKT3 (human) (UniProt Q9Y243)
[39] = biological target: MUSK (human) (UniProt O15146)
[40] = biological target: CDK1 CCNB1 (human) (UniProt P06493+P14635)
[41] = biological target: PHKG2 (human) (UniProt P15735)

Chain of LYN (human) (P07948 whole entry, looked up): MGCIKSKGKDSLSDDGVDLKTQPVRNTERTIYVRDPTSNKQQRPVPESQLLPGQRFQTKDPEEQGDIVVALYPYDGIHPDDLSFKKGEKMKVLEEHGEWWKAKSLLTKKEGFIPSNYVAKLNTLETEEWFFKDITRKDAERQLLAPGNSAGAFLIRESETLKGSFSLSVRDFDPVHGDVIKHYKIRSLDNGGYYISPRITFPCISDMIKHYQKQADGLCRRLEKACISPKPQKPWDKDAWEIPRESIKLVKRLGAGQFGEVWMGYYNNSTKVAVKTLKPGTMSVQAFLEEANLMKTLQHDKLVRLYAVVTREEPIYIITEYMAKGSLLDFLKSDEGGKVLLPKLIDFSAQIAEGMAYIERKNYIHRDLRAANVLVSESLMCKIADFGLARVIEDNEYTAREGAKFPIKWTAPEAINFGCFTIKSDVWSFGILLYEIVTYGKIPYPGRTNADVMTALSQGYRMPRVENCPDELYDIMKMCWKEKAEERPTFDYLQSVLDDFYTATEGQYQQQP
Chain of TEK (human) (Q02763 whole entry, looked up): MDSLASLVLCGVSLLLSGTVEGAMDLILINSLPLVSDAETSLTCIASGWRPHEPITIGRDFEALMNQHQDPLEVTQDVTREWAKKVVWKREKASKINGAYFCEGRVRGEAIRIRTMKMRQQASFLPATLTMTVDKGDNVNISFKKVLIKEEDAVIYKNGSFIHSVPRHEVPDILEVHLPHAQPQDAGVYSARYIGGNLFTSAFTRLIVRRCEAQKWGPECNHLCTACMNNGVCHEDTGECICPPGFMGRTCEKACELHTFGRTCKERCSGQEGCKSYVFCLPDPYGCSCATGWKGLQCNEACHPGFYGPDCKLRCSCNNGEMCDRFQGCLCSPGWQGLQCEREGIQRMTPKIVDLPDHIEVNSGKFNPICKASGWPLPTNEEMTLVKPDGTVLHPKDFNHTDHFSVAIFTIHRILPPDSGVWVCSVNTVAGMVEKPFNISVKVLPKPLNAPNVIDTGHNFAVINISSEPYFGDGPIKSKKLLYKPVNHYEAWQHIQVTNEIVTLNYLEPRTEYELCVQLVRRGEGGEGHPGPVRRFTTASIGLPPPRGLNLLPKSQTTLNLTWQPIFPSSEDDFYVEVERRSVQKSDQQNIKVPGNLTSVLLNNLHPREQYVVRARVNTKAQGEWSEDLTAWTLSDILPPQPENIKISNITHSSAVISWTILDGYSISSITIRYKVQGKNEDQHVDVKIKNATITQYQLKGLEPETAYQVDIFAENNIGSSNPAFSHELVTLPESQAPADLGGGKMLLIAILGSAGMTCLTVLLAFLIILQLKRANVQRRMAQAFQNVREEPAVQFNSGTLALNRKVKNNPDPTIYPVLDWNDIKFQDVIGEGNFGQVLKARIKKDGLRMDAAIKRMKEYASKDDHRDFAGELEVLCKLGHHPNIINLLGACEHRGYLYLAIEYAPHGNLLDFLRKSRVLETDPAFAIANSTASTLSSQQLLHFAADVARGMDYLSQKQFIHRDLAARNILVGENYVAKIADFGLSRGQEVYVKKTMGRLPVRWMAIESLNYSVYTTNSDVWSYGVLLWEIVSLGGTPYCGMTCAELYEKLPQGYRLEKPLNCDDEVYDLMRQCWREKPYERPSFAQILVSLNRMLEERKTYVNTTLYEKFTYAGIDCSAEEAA
Chain of ACVRL1 (human) (P37023 whole entry, looked up): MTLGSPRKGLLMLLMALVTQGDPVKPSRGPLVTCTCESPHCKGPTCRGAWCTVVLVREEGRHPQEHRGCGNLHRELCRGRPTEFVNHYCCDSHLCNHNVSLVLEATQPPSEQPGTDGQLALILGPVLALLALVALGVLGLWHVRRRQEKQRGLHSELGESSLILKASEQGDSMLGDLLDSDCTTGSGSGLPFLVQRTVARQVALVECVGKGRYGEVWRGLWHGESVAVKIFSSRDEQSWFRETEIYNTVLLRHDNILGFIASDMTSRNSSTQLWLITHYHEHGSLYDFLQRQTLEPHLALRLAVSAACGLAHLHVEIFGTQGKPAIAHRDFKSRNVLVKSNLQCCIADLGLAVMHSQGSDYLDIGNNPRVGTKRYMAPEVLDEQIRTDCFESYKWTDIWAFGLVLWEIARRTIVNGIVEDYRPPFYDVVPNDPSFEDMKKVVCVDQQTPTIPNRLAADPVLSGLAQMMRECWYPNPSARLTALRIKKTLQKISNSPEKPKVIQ
Chain of ULK1 (human) (O75385 whole entry, looked up): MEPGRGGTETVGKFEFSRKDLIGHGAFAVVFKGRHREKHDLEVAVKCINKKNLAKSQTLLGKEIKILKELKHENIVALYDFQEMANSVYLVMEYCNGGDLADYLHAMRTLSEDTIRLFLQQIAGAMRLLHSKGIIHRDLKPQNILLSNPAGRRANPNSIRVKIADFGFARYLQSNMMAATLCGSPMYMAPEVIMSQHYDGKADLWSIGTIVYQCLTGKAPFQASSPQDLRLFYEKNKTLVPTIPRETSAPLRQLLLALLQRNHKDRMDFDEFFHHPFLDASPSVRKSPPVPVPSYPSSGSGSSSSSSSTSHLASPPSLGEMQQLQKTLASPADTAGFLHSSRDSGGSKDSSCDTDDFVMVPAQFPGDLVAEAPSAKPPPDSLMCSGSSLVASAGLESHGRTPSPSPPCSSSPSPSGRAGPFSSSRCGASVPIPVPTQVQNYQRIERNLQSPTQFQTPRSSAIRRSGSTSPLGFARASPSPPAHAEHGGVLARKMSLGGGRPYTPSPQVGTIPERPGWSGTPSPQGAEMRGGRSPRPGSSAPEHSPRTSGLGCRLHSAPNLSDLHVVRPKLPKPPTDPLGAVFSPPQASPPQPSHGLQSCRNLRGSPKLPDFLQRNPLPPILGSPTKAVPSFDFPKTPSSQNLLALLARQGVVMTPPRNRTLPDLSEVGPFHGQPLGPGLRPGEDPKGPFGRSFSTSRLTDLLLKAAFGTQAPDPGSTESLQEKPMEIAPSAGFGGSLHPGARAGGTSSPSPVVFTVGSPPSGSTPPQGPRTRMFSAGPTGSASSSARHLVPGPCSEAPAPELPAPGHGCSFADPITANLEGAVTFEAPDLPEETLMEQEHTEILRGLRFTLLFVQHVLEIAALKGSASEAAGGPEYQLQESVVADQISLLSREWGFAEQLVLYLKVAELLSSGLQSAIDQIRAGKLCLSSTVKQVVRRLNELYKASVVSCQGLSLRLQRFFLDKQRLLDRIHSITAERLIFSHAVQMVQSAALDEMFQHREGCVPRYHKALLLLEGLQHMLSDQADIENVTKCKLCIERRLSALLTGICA
Chain of DYRK3 (human) (O43781 whole entry, looked up): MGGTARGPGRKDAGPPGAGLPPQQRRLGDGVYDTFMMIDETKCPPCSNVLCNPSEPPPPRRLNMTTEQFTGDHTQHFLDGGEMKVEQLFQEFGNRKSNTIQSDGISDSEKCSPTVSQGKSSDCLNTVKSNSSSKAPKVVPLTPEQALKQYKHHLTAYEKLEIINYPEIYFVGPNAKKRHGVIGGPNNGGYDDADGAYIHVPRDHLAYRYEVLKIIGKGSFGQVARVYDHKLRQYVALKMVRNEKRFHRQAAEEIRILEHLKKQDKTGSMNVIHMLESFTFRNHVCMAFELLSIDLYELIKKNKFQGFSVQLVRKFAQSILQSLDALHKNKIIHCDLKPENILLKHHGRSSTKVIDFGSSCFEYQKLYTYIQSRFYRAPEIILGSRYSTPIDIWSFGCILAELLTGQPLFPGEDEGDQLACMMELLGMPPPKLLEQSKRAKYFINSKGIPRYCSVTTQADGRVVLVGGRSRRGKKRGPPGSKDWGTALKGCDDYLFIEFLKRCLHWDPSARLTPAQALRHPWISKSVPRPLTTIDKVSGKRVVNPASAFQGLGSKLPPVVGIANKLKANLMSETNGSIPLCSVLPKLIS
Chain of PRKX (human) (P51817 whole entry, looked up): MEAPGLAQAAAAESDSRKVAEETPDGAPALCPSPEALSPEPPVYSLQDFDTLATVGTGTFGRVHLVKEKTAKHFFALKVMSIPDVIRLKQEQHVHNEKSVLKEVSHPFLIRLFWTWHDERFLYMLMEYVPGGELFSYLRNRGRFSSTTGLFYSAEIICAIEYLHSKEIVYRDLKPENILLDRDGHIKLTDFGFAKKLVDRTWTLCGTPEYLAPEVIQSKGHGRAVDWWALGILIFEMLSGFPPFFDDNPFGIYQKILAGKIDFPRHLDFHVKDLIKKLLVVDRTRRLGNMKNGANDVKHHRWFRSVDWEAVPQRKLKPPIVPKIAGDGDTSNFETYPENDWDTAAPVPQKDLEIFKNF
Chain of CHEK2 (human) (O96017 whole entry, looked up): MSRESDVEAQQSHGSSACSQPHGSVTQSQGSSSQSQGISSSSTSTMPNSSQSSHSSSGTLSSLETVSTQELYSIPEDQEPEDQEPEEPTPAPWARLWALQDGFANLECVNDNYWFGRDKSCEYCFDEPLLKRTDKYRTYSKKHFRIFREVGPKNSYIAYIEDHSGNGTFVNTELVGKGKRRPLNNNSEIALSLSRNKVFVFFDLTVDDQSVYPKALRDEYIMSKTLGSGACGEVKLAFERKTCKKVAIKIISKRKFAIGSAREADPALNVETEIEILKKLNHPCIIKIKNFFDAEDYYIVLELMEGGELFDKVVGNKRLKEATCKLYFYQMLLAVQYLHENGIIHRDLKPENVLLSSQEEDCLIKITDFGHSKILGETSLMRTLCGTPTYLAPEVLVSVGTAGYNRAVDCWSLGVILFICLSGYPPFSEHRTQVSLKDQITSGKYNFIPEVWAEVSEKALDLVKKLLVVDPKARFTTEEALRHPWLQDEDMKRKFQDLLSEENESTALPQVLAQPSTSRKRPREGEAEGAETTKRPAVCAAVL
Chain of MAP2K6 (human), P52564 [S207E/T211E] (P52564 whole entry S207E/T211E, looked up): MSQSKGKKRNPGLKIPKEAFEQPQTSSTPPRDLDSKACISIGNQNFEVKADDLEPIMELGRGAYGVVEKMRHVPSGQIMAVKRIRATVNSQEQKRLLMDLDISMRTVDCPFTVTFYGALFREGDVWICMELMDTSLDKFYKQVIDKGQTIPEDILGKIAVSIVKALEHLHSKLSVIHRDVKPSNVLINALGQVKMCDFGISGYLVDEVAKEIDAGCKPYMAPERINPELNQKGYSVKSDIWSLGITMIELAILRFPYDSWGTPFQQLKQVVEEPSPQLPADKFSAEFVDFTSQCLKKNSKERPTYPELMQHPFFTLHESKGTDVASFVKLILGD

Q: With Cc1cncc2cccc(S(=O)(=O)N3CCCN(C(=O)CN)C[C@H]3C)c12 as the compound, how does the residual activity [1] read?
A: 90.6%

Q: What about the residual activity [2] of the same compound?
A: 107%

Q: And the residual activity [3]?
A: 135%

Q: And the residual activity [4]?
A: 89.2%

Q: What about the residual activity [5] of the same compound?
A: 51.8%

Q: And the residual activity [6]?
A: 98.9%

Q: And the residual activity [7]?
A: 98%

Q: And the residual activity [8]?
A: 106%

Q: What about the residual activity [9] of the same compound?
A: 90.7%

Q: What about the residual activity [10] of the same compound?
A: 96.2%

Q: What about the residual activity [11] of the same compound?
A: 95%

Q: What about the residual activity [12] of the same compound?
A: 101%

Q: What about the residual activity [13] of the same compound?
A: 104%

Q: And the residual activity [14]?
A: 98.6%

Q: What about the residual activity [15] of the same compound?
A: 95.6%

Q: What about the residual activity [16] of the same compound?
A: 84.2%

Q: And the residual activity [17]?
A: 107%

Q: What about the residual activity [18] of the same compound?
A: 98.6%

Q: And the residual activity [19]?
A: 95.1%

Q: And the residual activity [20]?
A: 101%

Q: What about the residual activity [21] of the same compound?
A: 105%

Q: And the residual activity [22]?
A: 100%

Q: And the residual activity [23]?
A: 60.3%

Q: And the residual activity [24]?
A: 66%

Q: And the residual activity [25]?
A: 99.2%

Q: And the residual activity [26]?
A: 106%

Q: What about the residual activity [27] of the same compound?
A: 91.1%

Q: What about the residual activity [28] of the same compound?
A: 95.3%

Q: And the residual activity [29]?
A: 114%

Q: And the residual activity [30]?
A: 103%

Q: And the residual activity [31]?
A: 54.2%

Q: What about the residual activity [32] of the same compound?
A: 98.4%

Q: What about the residual activity [33] of the same compound?
A: 105%

Q: What about the residual activity [34] of the same compound?
A: 99.3%

Q: And the residual activity [35]?
A: 88.1%

Q: What about the residual activity [36] of the same compound?
A: 89.1%

Q: And the residual activity [37]?
A: 101%

Q: And the residual activity [38]?
A: 98.8%

Q: What about the residual activity [39] of the same compound?
A: 88.7%

Q: What about the residual activity [40] of the same compound?
A: 96.9%

Q: And the residual activity [41]?
A: 90.5%
